Reference: ChEMBL document CHEMBL4765466, “Recent Advances in the Development of PD-L1 Modulators: Degraders, Downregulators, and Covalent Inhibitors” (J Med Chem, 2020)

Assay: Lipophilicity, log P of the compound
Format: physicochemical
Conditions: octanol/water

logP: 4.4
SMILES: COc1nc(OCc2cccc(-c3ccccc3)c2C)ccc1CNCCNC(C)=O
